Drawing on US20260193271A1, “PAN-KRAS INHIBITOR COMPOUND” (ADLAI NORTYE BIOPHARMA CO., LTD., priority 2022, published 2026), this text covers IC50 for five compounds.

For orientation: IC50 means the concentration needed to halve the response being measured.

One assay has as its system AsPC-1 (G12D). Description: In vitro cell proliferation inhibition test (CellTiter-Glo), AsPC-1. The class given is cell-based. The following applies: Homo sapiens, ASPC1, AsPC-1 pancreas cell line, KRAS (p.G12D), 72 h co-incubation. The gist of the method:
(§1)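 Cells were seeded at 1000-5000/well by doubling time and cultured overnight at 37 °C, 5% CO2. They were then exposed for 72 h to 10-point, 3-fold compound dilutions (final top 10 μM), and viability was read by CellTiter-Glo luminescence. IC50 came from normalized signals fitted by four-parameter regression.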
Background: In ATP-based viability assays light output follows the ATP content of the culture.

Another assay has as its system SW480 (G12V). As to the kind of experiment: In vitro cell proliferation inhibition test (CellTiter-Glo), SW480. It counts as cell-based. The following applies: Homo sapiens, SW480 colon cell line, KRAS (p.G12V), 72 h co-incubation. Put shortly:
as §1

As to `CCn1c(-c2cc(-c3cnc(CN4CCCCC4)nc3)cnc2[C@H](C)OC)c2c3cc(ccc31)-c1csc(n1)C[C@H](NC(=O)[C@H]1C[C@@H]1C)C(=O)N1CCC[C@H](N1)C(=O)OCC(C)(C)C2` (atropisomer, axis not shown) [Compound 55, (1S,2S)-N-((6^3S,4S,Z)-1^1-ethyl-1^2-(2-((S)-1-methoxyethyl)-5-(2-(piperidin-1-ylmethyl)pyrimidin-5-yl)pyridin-3-yl)-10,10-dimethyl-5,7-dioxo-6^1,6^2,6^3,6^4,6^5,6^6-hexahydro-1^1H-8-oxa-2(4,2)-thiazola-1(5,3)-indola-6(1,3)-pyridazinacycloundecaphane-4-yl)-2-methylcyclopropane-1-carboxamide], the IC50 in the assay on AsPC-1 (G12D) worked out at 6.8 nM; in the assay on SW480 (G12V) it was 15 nM.
The corresponding values for `CCn1c(-c2cc(-c3cnc(N4CCOCC4)nc3)cnc2[C@H](C)OC)c2c3cc(ccc31)-c1csc(n1)C[C@H](NC(=O)[C@H]1C[C@@H]1C)C(=O)N1CCC[C@H](N1)C(=O)OCC(C)(C)C2` (atropisomer, axis not shown) [Compound 56, (1S,2S)-N-((6^3S,4S,Z)-1^1-ethyl-1^2-(2-((S)-1-methoxyethyl)-5-(2-morpholinopyrimidin-5-yl)pyridin-3-yl)-10,10-dimethyl-5,7-dioxo-6^1,6^2,6^3,6^4,6^5,6^6-hexahydro-1^1H-8-oxa-2(4,2)-thiazola-1(5,3)-indola-6(1,3)-pyridazinacycloundecaphane-4-yl)-2-methylcyclopropane-1-carboxamide] are 16 nM and 21 nM.
For `CCn1c(-c2cc(-c3cnc(OC)nc3)cnc2[C@H](C)OC)c2c3cc(ccc31)-c1csc(n1)C[C@H](NC(=O)[C@H]1C[C@@H]1C)C(=O)N1CCC[C@H](N1)C(=O)OCC(C)(C)C2` (atropisomer, axis not shown) [Compound 57, (1S,2S)-N-((6^3S,4S,Z)-1^1-ethyl-1^2-(2-((S)-1-methoxyethyl)-5-(2-methoxypyrimidin-5-yl)pyridin-3-yl)-10,10-dimethyl-5,7-dioxo-6^1,6^2,6^3,6^4,6^5,6^6-hexahydro-1H-8-oxa-2(4,2)-thiazola-1(5,3)-indola-6(1,3)-pyridazinacycloundecaphane-4-yl)-2-methylcyclopropane-1-carboxamide], in that order: 5.6 nM and 4.6 nM.
For `CCn1c(-c2cc(-c3cnc(CN4CCN(CCOC)CC4)nc3)cnc2[C@H](C)OC)c2c3cc(ccc31)-c1csc(n1)C[C@H](NC(=O)[C@H]1C[C@@H]1C)C(=O)N1CCC[C@H](N1)C(=O)OCC(C)(C)C2` (atropisomer, axis not shown) [Compound 58, (1S,2S)-N-((6^3S,4S,Z)-1^1-ethyl-1^2-(2-((S)-1-methoxyethyl)-5-(2-((4-(2-methoxyethyl)piperazin-1-yl)methyl)pyrimidin-5-yl)pyridin-3-yl)-10,10-dimethyl-5,7-dioxo-6^1,6^2,6^3,6^4,6^5,6^6-hexahydro-1^1H-8-oxa-2(4,2)-thiazola-1(5,3)-indola-6(1,3)-pyridazinacycloundecaphane-4-yl)-2-methylcyclopropane-1-carboximide], in that order: 68 nM and 30 nM.
For `CCn1c(-c2cc(-c3cnc(N(C)C)nc3)cnc2[C@H](C)OC)c2c3cc(ccc31)-c1csc(n1)C[C@H](NC(=O)[C@H]1C[C@@H]1C)C(=O)N1CCC[C@H](N1)C(=O)OCC(C)(C)C2` (atropisomer, axis not shown) [Compound 59, (1S,2S)-N-((6^3S,4S,Z)-1^2-(5-(2-(dimethylamino)pyrimidin-5-yl)-2-((S)-1-methoxyethyl)pyridin-3-yl)-1^1-ethyl-10,10-dimethyl-5,7-dioxo-6^1,6^2,6^3,6^4,6^5,6^6-hexahydro-1^1H-8-oxa-2(4,2)-thiazola-1(5,3)-indola-6(1,3)-pyridazinacycloundecaphane-4-yl)-2-methylcyclopropane-1-carboxamide], the half-inhibitory concentration (IC50) worked out at 3 nM in the assay with AsPC-1 (G12D) and 6.2 nM with SW480 (G12V).
